According to the NIST ThermoML archive (doi:10.1007/s10765-006-0082-x):
± gives the expanded uncertainty stated by the source.

Experiment: compressibility factor (dimensionless); xn = mol fraction of the nth substance listed
Settings: Liquid, Burnett expansion method

Structure (SMILES): [N-]=[N+]=O [nitrous oxide] + FC(F)F
- compressibility factor (303.25 K, 141.8 kPa, x1 = 0.6613): 0.9915 ± 0.0001
- compressibility factor (303.25 K, 151.7 kPa, x1 = 0.3152): 0.9906 ± 0.0001
- compressibility factor (303.25 K, 160.7 kPa, x1 = 0.2248): 0.991 ± 0.0002
- compressibility factor (303.25 K, 174.2 kPa, x1 = 0.5419): 0.9896 ± 0.0001
- compressibility factor (303.25 K, 182.2 kPa, x1 = 0.4308): 0.9882 ± 0.0001
- compressibility factor (303.25 K, 209.6 kPa, x1 = 0.7758): 0.9883 ± 0.0001
- compressibility factor (303.25 K, 211.4 kPa, x1 = 0.6613): 0.9879 ± 0.0001
- compressibility factor (303.25 K, 225.8 kPa, x1 = 0.3152): 0.9858 ± 0.0001
- compressibility factor (303.25 K, 239.5 kPa, x1 = 0.2248): 0.9872 ± 0.0002
- compressibility factor (303.25 K, 259.3 kPa, x1 = 0.5419): 0.9847 ± 0.0001
- compressibility factor (303.25 K, 271.2 kPa, x1 = 0.4308): 0.9832 ± 0.0001
- compressibility factor (303.25 K, 311.9 kPa, x1 = 0.7758): 0.983 ± 0.0001
- compressibility factor (303.25 K, 314.4 kPa, x1 = 0.6613): 0.9824 ± 0.0001
- compressibility factor (303.25 K, 335.5 kPa, x1 = 0.3152): 0.9789 ± 0.0001
- compressibility factor (303.25 K, 356.1 kPa, x1 = 0.2248): 0.9814 ± 0.0002
- compressibility factor (303.25 K, 385.1 kPa, x1 = 0.5419): 0.9775 ± 0.0001
- compressibility factor (303.25 K, 402.6 kPa, x1 = 0.4308): 0.9756 ± 0.0001
- compressibility factor (303.25 K, 462.7 kPa, x1 = 0.7758): 0.9749 ± 0.0001
- compressibility factor (303.25 K, 466.4 kPa, x1 = 0.6613): 0.974 ± 0.0001
- compressibility factor (303.25 K, 496.7 kPa, x1 = 0.3152): 0.9688 ± 0.0001
- compressibility factor (303.25 K, 528.1 kPa, x1 = 0.2248): 0.9726 ± 0.0002
- compressibility factor (303.25 K, 569.8 kPa, x1 = 0.5419): 0.9668 ± 0.0001
- compressibility factor (303.25 K, 595 kPa, x1 = 0.4308): 0.9638 ± 0.0001
- compressibility factor (303.25 K, 683.7 kPa, x1 = 0.7758): 0.9628 ± 0.0001
- compressibility factor (303.25 K, 688.8 kPa, x1 = 0.6613): 0.9615 ± 0.0001
- compressibility factor (303.25 K, 731.3 kPa, x1 = 0.3152): 0.9534 ± 0.0001
- compressibility factor (303.25 K, 779.4 kPa, x1 = 0.2248): 0.9596 ± 0.0002
- compressibility factor (303.25 K, 838.3 kPa, x1 = 0.5419): 0.9507 ± 0.0001
- compressibility factor (303.25 K, 874.1 kPa, x1 = 0.4308): 0.9464 ± 0.0001
- compressibility factor (303.25 K, 1003.6 kPa, x1 = 0.7758): 0.9446 ± 0.0001
- compressibility factor (303.25 K, 1010.4 kPa, x1 = 0.6613): 0.9427 ± 0.0001
- compressibility factor (303.25 K, 1068.3 kPa, x1 = 0.3152): 0.9309 ± 0.0001
- compressibility factor (303.25 K, 1142.3 kPa, x1 = 0.2248): 0.94 ± 0.0002
- compressibility factor (303.25 K, 1222.8 kPa, x1 = 0.5419): 0.9269 ± 0.0001
- compressibility factor (303.25 K, 1272.3 kPa, x1 = 0.4308): 0.9208 ± 0.0001
- compressibility factor (303.25 K, 1459.1 kPa, x1 = 0.7758): 0.918 ± 0.0001
- compressibility factor (303.25 K, 1467.5 kPa, x1 = 0.6613): 0.9152 ± 0.0001
- compressibility factor (303.25 K, 1541.6 kPa, x1 = 0.3152): 0.8979 ± 0.0001
- compressibility factor (303.25 K, 1657.1 kPa, x1 = 0.2248): 0.9115 ± 0.0002
- compressibility factor (303.25 K, 1760.9 kPa, x1 = 0.5419): 0.8922 ± 0.0001
- compressibility factor (303.25 K, 1825.8 kPa, x1 = 0.4308): 0.8832 ± 0.0001
- compressibility factor (303.25 K, 2090.5 kPa, x1 = 0.7758): 0.8791 ± 0.0001
- compressibility factor (303.25 K, 2099 kPa, x1 = 0.6613): 0.8749 ± 0.0001
- compressibility factor (303.25 K, 2185.1 kPa, x1 = 0.3152): 0.8507 ± 0.0001
- compressibility factor (303.25 K, 2366.6 kPa, x1 = 0.2248): 0.8701 ± 0.0001
- compressibility factor (303.25 K, 2486.5 kPa, x1 = 0.5419): 0.8421 ± 0.0001
- compressibility factor (303.25 K, 2565.1 kPa, x1 = 0.4308): 0.8294 ± 0.0001
- compressibility factor (303.25 K, 2929 kPa, x1 = 0.7758): 0.8233 ± 0.0001
- compressibility factor (303.25 K, 2933.8 kPa, x1 = 0.6613): 0.8174 ± 0.0001
- compressibility factor (303.25 K, 3012.1 kPa, x1 = 0.3152): 0.7838 ± 0.0001
- compressibility factor (303.25 K, 3303.6 kPa, x1 = 0.2248): 0.8119 ± 0.0001
- compressibility factor (303.25 K, 3408.6 kPa, x1 = 0.5419): 0.7716 ± 0.0001
- compressibility factor (303.25 K, 3489.6 kPa, x1 = 0.4308): 0.7542 ± 0.0001
- compressibility factor (303.25 K, 3965.1 kPa, x1 = 0.7758): 0.7449 ± 0.0001
- compressibility factor (323.43 K, 176.4 kPa, x1 = 0.5105): 0.9908 ± 0.0001
- compressibility factor (323.43 K, 262.8 kPa, x1 = 0.5105): 0.987 ± 0.0001
- compressibility factor (323.43 K, 391 kPa, x1 = 0.5105): 0.9814 ± 0.0001
- compressibility factor (323.43 K, 579.9 kPa, x1 = 0.5105): 0.9729 ± 0.0001
- compressibility factor (323.43 K, 856.1 kPa, x1 = 0.5105): 0.96 ± 0.0001
- compressibility factor (323.43 K, 1255 kPa, x1 = 0.5105): 0.9406 ± 0.0001
- compressibility factor (323.43 K, 1820.9 kPa, x1 = 0.5105): 0.9123 ± 0.0001
- compressibility factor (323.43 K, 2601.4 kPa, x1 = 0.5105): 0.8711 ± 0.0001
- compressibility factor (323.43 K, 3632.8 kPa, x1 = 0.5105): 0.8131 ± 0.0001
- compressibility factor (323.44 K, 159.9 kPa, x1 = 0.6428): 0.9917 ± 0.0001
- compressibility factor (323.44 K, 170.7 kPa, x1 = 0.7792): 0.992 ± 0.0001
- compressibility factor (323.44 K, 174 kPa, x1 = 0.358): 0.9909 ± 0.0001
- compressibility factor (323.44 K, 238.4 kPa, x1 = 0.6428): 0.9886 ± 0.0001
- compressibility factor (323.44 K, 254.5 kPa, x1 = 0.7792): 0.9888 ± 0.0001
- compressibility factor (323.44 K, 259.3 kPa, x1 = 0.358): 0.9869 ± 0.0001
- compressibility factor (323.44 K, 354.9 kPa, x1 = 0.6428): 0.9837 ± 0.0001
- compressibility factor (323.44 K, 378.9 kPa, x1 = 0.7792): 0.9837 ± 0.0001
